Columns and labels:
NCI-H322M = experiment: Cytotoxicity against human NCI-H322M cells after 24 hrs by SRB assay; assay type: functional
EKVX = experiment: Cytotoxicity against human EKVX cells assessed as cell growth at 10^-7 M after 24 hrs by SRB assay; assay type: functional; conditions: read-out: Activity
K562 [1] = experiment: Cytotoxicity against human K562 cells assessed as cell growth at 10^-4 M after 24 hrs by SRB assay; assay type: functional; conditions: K562, 24 h, read-out: Activity
[2] = Cytotoxicity against human UACC62 cells assessed as cell growth at 10^-6 M after 24 hrs by SRB assay; assay type: functional; conditions: UACC-62, 24 h, read-out: Activity
SR = experiment: Cytotoxicity against human SR cells assessed as cell growth at 10^-4 M after 24 hrs by SRB assay; assay type: functional; conditions: read-out: Activity
[3] = Cytotoxicity against human RXF393 cells assessed as cell growth at 10^-4 M after 24 hrs by SRB assay; assay type: functional; conditions: RXF 393, 24 h, read-out: Activity
[4] = Cytotoxicity against human SNB75 cells assessed as cell growth at 10^-7 M after 24 hrs by SRB assay; assay type: functional; conditions: SNB-75, 24 h, read-out: Activity
[5] = Cytotoxicity against human OVCAR8 cells assessed as cell growth at 10^-7 M after 24 hrs by SRB assay; assay type: functional; conditions: OVCAR-8, 24 h, read-out: Activity
[6] = Cytotoxicity against human BT549 cells assessed as cell growth at 10^-7 M after 24 hrs by SRB assay; assay type: functional; conditions: BT-549, 24 h, read-out: Activity
786-0 = experiment: Cytotoxicity against human 786-0 cells assessed as cell growth at 10^-8 M after 24 hrs by SRB assay; assay type: functional; conditions: 786-0, 24 h, read-out: Activity
[7] = Cytotoxicity against human SF295 cells after 24 hrs by SRB assay; assay type: functional, cell-based; conditions: SF-295, 24 h
HT-29 [8] = experiment: Cytotoxicity against human HT-29 cells assessed as cell growth at 10^-5 M after 24 hrs by SRB assay; assay type: functional; conditions: HT-29, 24 h, read-out: Activity
M14 = experiment: Cytotoxicity against human M14 cells assessed as cell growth at 10^-7 M after 24 hrs by SRB assay; assay type: functional; conditions: M14, 24 h, read-out: Activity
[9] = Cytotoxicity against human Caki1 cells assessed as cell growth at 10^-5 M after 24 hrs by SRB assay; assay type: functional; conditions: CAKI-1, 24 h, read-out: Activity
[10] = Cytotoxicity against human HCT116 cells assessed as cell growth at 10^-8 M after 24 hrs by SRB assay; assay type: functional; conditions: HCT-116, 24 h, read-out: Activity
[11] = Cytotoxicity against human LOXIMVI cells assessed as cell growth at 10^-6 M after 24 hrs by SRB assay; assay type: functional; conditions: LOX IMVI, read-out: Activity
[12] = Cytotoxicity against human PC3 cells assessed as cell growth at 10^-5 M after 24 hrs by SRB assay; assay type: functional; conditions: PC-3, 24 h, read-out: Activity
[13] = Cytotoxicity against human MOLT4 cells assessed as cell growth at 10^-4 M after 24 hrs by SRB assay; assay type: functional; conditions: MOLT-4, 24 h, read-out: Activity
A498 = experiment: Cytotoxicity against human A498 cells assessed as cell growth at 10^-7 M after 24 hrs by SRB assay; assay type: functional; conditions: A498, 24 h, read-out: Activity
[14] = Cytotoxicity against human SW620 cells assessed as cell growth at 10^-5 M after 24 hrs by SRB assay; assay type: functional; conditions: SW-620, 24 h, read-out: Activity
K562 [15] = experiment: Cytotoxicity against human K562 cells assessed as cell growth at 10^-7 M after 24 hrs by SRB assay; assay type: functional; conditions: K562, 24 h, read-out: Activity
[16] = Cytotoxicity against human IGROV1 cells assessed as cell growth at 10^-4 M after 24 hrs by SRB assay; assay type: functional; conditions: IGROV-1, 24 h, read-out: Activity
[17] = Cytotoxicity against human SNB75 cells assessed as cell growth at 10^-8 M after 24 hrs by SRB assay; assay type: functional; conditions: SNB-75, 24 h, read-out: Activity
NCI-H522 [18] = experiment: Cytotoxicity against human NCI-H522 cells assessed as cell growth at 10^-4 M after 24 hrs by SRB assay; assay type: functional; conditions: NCI-H522, 24 h, read-out: Activity
ACHN = experiment: Cytotoxicity against human ACHN cells assessed as cell growth at 10^-4 M after 24 hrs by SRB assay; assay type: functional; conditions: read-out: Activity
NCI-H522 [19] = experiment: Cytotoxicity against human NCI-H522 cells assessed as cell growth at 10^-6 M after 24 hrs by SRB assay; assay type: functional; conditions: NCI-H522, 24 h, read-out: Activity
[20] = Cytotoxicity against human HCC2998 cells assessed as cell growth at 10^-8 M after 24 hrs by SRB assay; assay type: functional; conditions: HCC 2998, 24 h, read-out: Activity
NCI-H522 [21] = experiment: Cytotoxicity against human NCI-H522 cells assessed as cell growth at 10^-7 M after 24 hrs by SRB assay; assay type: functional; conditions: NCI-H522, 24 h, read-out: Activity
[22] = Cytotoxicity against human IGROV1 cells assessed as cell growth at 10^-7 M after 24 hrs by SRB assay; assay type: functional; conditions: IGROV-1, 24 h, read-out: Activity
NCI-H226 = experiment: Cytotoxicity against human NCI-H226 cells assessed as cell growth at 10^-8 M after 24 hrs by SRB assay; assay type: functional; conditions: NCI-H226, 24 h, read-out: Activity
MDA-MB-231 = experiment: Cytotoxicity against human MDA-MB-231 cells assessed as cell growth at 10^-8 M after 24 hrs by SRB assay; assay type: functional; conditions: MDA-MB-231, 24 h, read-out: Activity
[23] = Cytotoxicity against human TK10 cells assessed as cell growth at 10^-4 M after 24 hrs by SRB assay; assay type: functional; conditions: TK-10, 24 h, read-out: Activity
SN12C = experiment: Cytotoxicity against human SN12C cells assessed as cell growth at 10^-5 M after 24 hrs by SRB assay; assay type: functional; conditions: read-out: Activity
HT-29 [24] = experiment: Cytotoxicity against human HT-29 cells assessed as cell growth at 10^-8 M after 24 hrs by SRB assay; assay type: functional; conditions: HT-29, 24 h, read-out: Activity
[25] = Cytotoxicity against human SF268 cells assessed as cell growth at 10^-4 M after 24 hrs by SRB assay; assay type: functional; conditions: SF-268, 24 h, read-out: Activity
[26] = Cytotoxicity against human SF268 cells assessed as cell growth at 10^-5 M after 24 hrs by SRB assay; assay type: functional; conditions: SF-268, 24 h, read-out: Activity
[27] = Cytotoxicity against human HCT116 cells assessed as cell growth at 10^-6 M after 24 hrs by SRB assay; assay type: functional; conditions: HCT-116, 24 h, read-out: Activity
[28] = Cytotoxicity against human OVCAR3 cells assessed as cell growth at 10^-6 M after 24 hrs by SRB assay; assay type: functional; conditions: OVCAR-3, 24 h, read-out: Activity
[29] = Cytotoxicity against human NCI-ADR-RES cells assessed as cell growth at 10^-6 M after 24 hrs by SRB assay; assay type: functional; conditions: read-out: Activity
[30] = read-out: LC50 (the source's name)
[31] = read-out: pLC50 (the source's name) (converted)

O=C(Nc1cc(-c2cccnc2)nc(NCCCN2CCOCC2)n1)c1cc(Br)cc(C(F)(F)F)c1
GI50 (NCI-H322M; read-out: GI50): 3.72 µM | CC50 (NCI-H322M; [30]): 43.2 µM | TGI (NCI-H322M; read-out: TGI): 15 µM | GI50 (NCI-H322M; read-out: pGI50 (converted)): 3.72 µM | CC50 (NCI-H322M; [31]): 43.7 µM | TGI (NCI-H322M; read-out: pTGI (converted)): 15.1 µM | growth at 0.1 µM (EKVX): 80% | growth at 100 µM (K562 [1]): -7% | growth at 1 µM [2]: 90% | growth at 100 µM (SR): -1% | growth at 100 µM [3]: -86% | growth at 0.1 µM [4]: 84% | growth at 0.1 µM [5]: 101% | growth at 0.1 µM [6]: 97% | growth at 0.01 µM (786-0): 93% | GI50 ([7]; read-out: GI50): 1.94 µM | CC50 [7, 30]: 7.97 µM | TGI ([7]; read-out: TGI): 3.93 µM | GI50 ([7]; read-out: pGI50 (converted)): 1.95 µM | CC50 [7, 31]: 7.94 µM | TGI ([7]; read-out: pTGI (converted)): 3.89 µM | growth at 10 µM (HT-29 [8]): -41% | growth at 0.1 µM (M14): 95% | growth at 10 µM [9]: 3% | growth at 0.01 µM [10]: 102% | growth at 1 µM [11]: 88% | growth at 10 µM [12]: 23% | growth at 100 µM [13]: -67% | growth at 0.1 µM (A498): 92% | growth at 10 µM [14]: -34% | growth at 0.1 µM (K562 [15]): 91% | growth at 100 µM [16]: -72% | growth at 0.01 µM [17]: 88% | growth at 100 µM (NCI-H522 [18]): -82% | growth at 100 µM (ACHN): -79% | growth at 1 µM (NCI-H522 [19]): 83% | growth at 0.01 µM [20]: 96% | growth at 0.1 µM (NCI-H522 [21]): 92% | growth at 0.1 µM [22]: 108% | growth at 0.01 µM (NCI-H226): 92% | growth at 0.01 µM (MDA-MB-231): 90% | growth at 100 µM [23]: -98% | growth at 10 µM (SN12C): 44% | growth at 0.01 µM (HT-29 [24]): 100% | growth at 100 µM [25]: -88% | growth at 10 µM [26]: 1% | growth at 1 µM [27]: 94% | growth at 1 µM [28]: 100% | growth at 1 µM [29]: 88%

From ChEMBL document CHEMBL3774345, “Synthesis of new diarylamides with pyrimidinyl pyridine scaffold and evaluation of their anti-proliferative effect on cancer cell lines” (Bioorg Med Chem Lett, 2016)
